Test results: US20260159486A1, “BENZO[H]QUINAZOLINE-4-AMINE DERIVATIVES FOR THE TREATMENT OF CANCER” (Redona Therapeutics, Inc., priority 2021, published 2026)

Columns and labels:
[1] = test system: phospho-SRSF6 in MDA-MB-468 cells; assay: Inhibition of phospho-SRSF6 levels in MDA-MB-468 cells (Western blot); format: cell-based; settings: Homo sapiens, 2 hours, compared to DMSO control
Experimental: FIG. 1: FIG. 1 provides a representative Western blot showing reduction of phosphorylated-SRSF6 (P—SRSF6) in MDA-MB 468 cells by compounds of the invention. GAPDH was probed for by Western blotting to control for equal protein loading and for normalization of samples. The numbers below the blots show percent inhibition of the P—SRSF6 signal at 100 nM (A) or 10 nM (B) compared to DMSO control.
Assessment of Inhibition of Phospho-SRSF6 Levels in MDA-MB-468 Cells
MDA-MB-468 cells (ATCC, HTB-132) were cultured in DMEM (BioConcept cat. no. 1-26F03) supplemented with 10% FBS (Sigma cat. no. F9665), […] (Sigma cat. no. S8636), 1% Penicillin-Streptomycin (BioConcept cat. no. 4-01FOO-H). When cells reached a density of 70% o in 6-well plates (TPP cat. no. 92006), they were treated either with the test compound vehicle DMSO, or with experimental compounds at a final concentration of either 10 or 100 nM for 2 hours. Thereafter, the culture medium was removed and cells were collected by scraping in Lysis Buffer (20 mM Tris HCl pH7.5, 150 mM NaCl, 1 mM EGTA, 1 mM EDTA, 1% o Triton and 1% o NP-40) containing protease and phosphatase inhibitors (Halt™ Protease&Phosphatase inhibitor cocktail 100× ThermioScientific cat. no. 1861281) and 1 mM PMSF (Fluka cat. no. 93482). Cleared lysates were stored in Eppendorfftubes at −80° C. until use, and protein concentration in lysates was determined using Pierce 660 nm Protein Assay Reagent (ThermioScientific cat. no. 22660). 20 μg proteins were diluted in 4× Laemmli buffer (Biorad cat. no. 161-0747) containing 10% beta-mercaptoethanol, separated by SDS-PAGE using 10% gels, and then transferred to PVDF membranes (Trans Blot Turbo Transfer Pack BioRad cat. no. 1704156) by Trans-Blot® Turbo™ System semidry blotting methodology (BioRad). Primary antibodies were incubated in TBS-0.1% Tween-20 buffer containing 3% BSA Bovine Albumin Fr.V (Millipore cat. no. 81-053-3) overnight at 4° C. The following primary antibodies were used: Mouse anti-phosphoepitope SR proteins clone 1H4 (Millipore cat. no. MABE50) diluted 1:5000, and rabbit anti-GAPDH clone 14C10 (Cell Signaling cat. no. 2118S) to control for equal protein loading, diluted 1:2000. HRP-conjugated secondary antibodies were incubated one hour at room temperature diluted 1:5000 in TBS-0.1% Tween-20 buffer containing […] nonfat-dried bovine milk (Sigma cat. no. M7409). The following secondary antibodies were used: Goat anti-mouse-HRP (Jackson cat. no. 115-035-146) and goat anti-rabbit-HRP (Jackson cat. no. 111-035-144). Membranes were incubated with ECL Prime Western Blot Detection Reagent (Amersham cat. no. RPN2236) to detect specific signals using Fusion SOLO S device (Vilber Lourmat). Pixel intensity of the phopsho-SRSF6 (MW 55 kDa in reference to markers) and GAPDH (MW 37 kDa) signals in the Western blots were determined using Evolution-Capt image analysis software (v17.01, Vilber Lourmat). DMSO control was used to set the phospho-SRSF6 signal at baseline, phospho-SRSF6 signals for each sample were normalized by the respective GAPDH signals and percent intensity of P—SRSF6 signal at 10 and 100 nM compound compared to DMSO control was calculated (see FIG. 1).

[2] = test system: SW480 human colorectal cancer cells; assay: SW480 colorectal cancer mouse xenograft model; format: in vivo, NOD/SCID mice
Experimental: NOD/SCID mice of circa 23 g of weight were inoculated with 1×10^7 SW480 human colorectal cancer cells in 50% Matrigel™ subcutaneously in a flank. A pair match was performed when tumors reached an average volume of 100-150 mm^3 to distribute animals into treatment group and vehicle control (n=8/group). Tumor volumes (expressed in mm^3) were measured twice weekly using a caliper on days 1, 4, 8, 11, 15, 18, 22 and 23 of the treatment period. (A) The average TVol (±standard error of mean (SEM)) of each treatment group are shown. […] (B) Changes in BW in percentage (expressed in g, ±SEM) on days 1, 4, 8, 11, 15, 18, 22 and 23 of the treatment period. (C) Changes in vehicle- and Example 13-treated TVol expressed in mm^3. TVol ratio of Example 13-treated vs vehicle control (T/C) is indicated.
The efficacy of Example 13 was assessed in a mouse xenograft model. To this end, the SW480 colorectal cancer xenograft model was used, in which the tumor cells were injected subcutaneously into the flanks of immune-deficient NOD/SCID mice (lack functional/mature T and B cells, functional immature macrophages and residual NK cell function). […]
Tumor volumes (expressed in mm^3) were measured in two dimensions using a caliper on days 1, 4, 8, 11, 15, 18, 22 and 23 of the treatment period. […]

Structure (SMILES): COCCN(C)c1c(O[C@H]2CC[C@H](N)CC2)ccc2c1CC(C)(C)c1c(N)ncnc1-2 [Example 13, 8-(trans-4-aminocyclohexoxy)-N7-(2-methoxyethyl)-N7,5,5-trimethyl-6H-benzo[h]quinazoline-4,7-diamine]
- inhibition at 0.01 µM ([1]; 10 nM, read-out: >50% p-SRSF6 reduction at 10 nM): < 50%
- inhibition at 0.1 µM ([1]; 100 nM, read-out: >50% p-SRSF6 reduction at 100 nM): > 50%
- tumor volumes during the treatment period compared with vehicle-treated ([2]; oral 45 mg/kg BID*BIW, treatment period): consistently smaller
- tumor volumes as % of the volume of the vehicle-treated group (T/C) ([2]; study endpoint day 23, oral BID*BIW, 45 mg/kg days 1-10, 50 mg/kg days 11-22, p=0.06): 61%
